The source of these data is article PMC8160438, “A Novel Heptapeptide, GPPGPAG Transfers to the Brain, and Ameliorates Memory Dysfunction and Dendritic Atrophy in Alzheimer’s Disease Model Mice” (Frontiers in Pharmacology, 2021).

The nature of data set [1]: Cerebral cortex level after oral administration (brain penetration), LC-MS. In kind it is in vivo, mouse. As for the experimental part:
Bioavailability and brain penetration of GPPGPAG was performed as previously described ([Yang et al., 2017]). GPPGPAG (500 mg) was dissolved in 750 μL of physiological saline. […] The mice were euthanized at 10, 60, and 180 min after administration. Blood was collected and centrifuged at 10,000 g and 4°C for 10 min to yield plasma. Plasma aliquots (200 μL) were extracted with methanol, dried, sonicated, and resolubilized in 50% methanol (100 μL). The cerebral cortex was also collected after complete saline perfusion for removing blood. The cortex was homogenized, extracted with methanol, dried, sonicated, and resolubilized in 50% methanol (100 µL). To calculate GPPGPAG concentration in the plasma and brain using liquid chromatography-mass spectrometry (LC-MS), a standard curve was generated by analyzing standard amounts of GPPGPAG solubilized in methanol at a dosage of 1, 5, and 10 μg/ml. A Thermo Scientific Accela high-performance LC (HPLC) system, interfaced with an LTQ Orbitrap XL hybrid Fourier Transform Mass Spectrometer (Thermo Fisher Scientific), was used to chemically profile GPPGPAG and the biosamples. The LC analysis was performed on a InertSustain AQ-C18 (4.6 mm ID × 50 mm, 5 μm, GL Sciences, Tokyo, Japan) held at 40°C with a flow rate of 200 μL/min 0.01% formic acid in water (a) and methanol (b) were used in the mobile phase, with the following linear elution gradient: 0–15 min, 10–90% b; 15–18 min, 90–10% b; 18–20 min, 10% b. The following electrospray interface (ESI) parameters were used: spray voltage, 4.5 kV; capillary voltage, […]; tube lens, 150 V; capillary temperature, 330°C; sheath gas flow rate, 50 units; aux gas flow rate, 10 units. […]
[…] (A) Total ion chromatogram (upper) and extracted ion current chromatogram (lower) of standard GPPGPAG (m/z = 552.2753) at 10 μg/ml for quantification of (B) and (C) data. […] In total ion chromatogram (upper) and extracted ion current chromatogram (lower) of m/z = 552.2753, no peaks were detected. […] In total ion chromatogram and extracted ion current chromatogram of m/z = 552.2753, peaks matching the retention time of GPPGPAG were detected. (D) Total ion chromatogram (upper) and extracted ion current chromatogram (lower) of standard GPPGPAG (m/z = 552.2716) at 10 μg/ml for quantification of (E) and (F) data. […] In total ion chromatogram (upper) and extracted ion current chromatogram (lower) of m/z = 552.2716, no peaks were detected. […] In total ion chromatogram and extracted ion current chromatogram of m/z = 552.2716, peaks matching the retention time of GPPGPAG were detected. Quantified amount of GPPGPAG in the plasma (G) and cerebral cortex (H) are shown. *p < 0.05, ****p < 0.0001 vs, saline 10 min, one-way ANOVA with post hoc Bonferroni’s test, mean ± standard error, n = 3 mice.

Data set [2] can be described thus: Body weight during i.c.v. infusion. In kind it is in vivo, mouse. The settings on record: i.c.v. infusion for 28 days. How it is done:
FIGURE 4 Effect of i.c.v. infusion of GPPGPAG on object recognition memory deficits in 5XFAD mice (A) GPPGPAG or vehicle solution (artificial cerebrospinal fluid; ACSF) was continuously administered to the lateral ventricle for 28 days in mice (male and female, 24–27 weeks old). The dose of GPPGPAG was set as 10 nM in CSF. An object recognition test was carried out with a 3 h interval time. The preferential indices of the training and test sessions are shown. *p < 0.05 vs. vehicle-treated 5XFAD mice, repeated measures two-way ANOVA with post hoc Bonferroni’s test. mean ± standard error. Wild-type (male, n = 5), vehicle-treated 5XFAD mice (male, n = 2; female, n = 2), GPPGPAG-infused 5XFAD mice (male, n = 2; female, n = 3). (B) Locomotion was evaluated by open field test. Distance moved and duration with immobility were shown. mean ± standard error (C) Changed values of body weight of mice during whole experimental period are shown.
P re fe re n tia l in d e x (% ) […]
Effect of i.c.v. infusion of GPPGPAG on object recognition memory deficits in 5XFAD mice
(A) GPPGPAG or vehicle solution (artificial cerebrospinal fluid; ACSF) was continuously administered to the lateral ventricle for 28 days in mice (females, 5 - 7 months old). The dose of GPPGPAG was set as 10 nM in ACSF. An object recognition test was carried out with a 24 h interval time. […] (B) Locomotion was evaluated by open field test. […]

No end group written: not given here.

On to GPPGPAG [GPPGPAG], for which the “transferred amount in the brain” value in data set [1] (calculated for 10 mg/kg per orally from the cortex level at 500 mg/mouse) is 0.598 pmol. Besides, the tissue level at time at 3 h in data set [1] (cerebral cortex, po, 180 min after p.o. administration of 500 mg/mouse, ddY mice, female, LC-MS, mean of n = 3) was 2750 ng/g. The “detection in the cerebral cortex” value in data set [1] (ddY mice, female, 8 weeks, 500 mg/mouse p.o. single dose, cortex after saline perfusion, LC-MS, n = 3) is “detected 10 min later”. In addition, in data set [1] (male mouse, 9 weeks old, p.o. administration, data not shown), the “detection in plasma and cerebral cortex” value was “similarly detected in the plasma and cerebral cortex”. The body weight entry in data set [2] (5XFAD mice, 10 nM in CSF) is on record as “not significantly changed”; in data set [2] (female 5XFAD mice, 10 nM, separately performed experiment), “no significant difference”.
